Holding throughout (type): cell-based, mouse
Assay [1] deals with TLR2 signaling (Pam3Cys-induced phosphorylation of ERK, JNK, p38). Kind of assay: Pam3Cys-induced activation of MAPKs, Western blot. The note with it: for effect on P3C-induced activation (phosphorylation) of ERK / effect on P3C-induced activation of p38: 40 μM; for effect on P3C-induced activation (phosphorylation) of ERK: P3C 150 ng/ml. How it is done:
(§1) FIG. 4. Comparative effect of BPs on TLR2-vs. TLR4-mediated activation of MAPKs (A) and IL-1β mRNA expression (B). For Western blot analysis, 4.5 x10^6 primary macrophages were preincubated without or with 40 μM BP and stimulated for 30 min with LPS (10 ng/ml) or Pam3Cys (P3C; 150 ng/ml). The results shown are a representative blot of three separate experiments. Experimental details for FIG. 4B are the same as reported in the legend to FIG. 1A.
(§2) SDS-PAGE and Western blot analysis were performed as described previously (Medvedev et al., 2001, J. Immunol. 167, 2257) with minor modifications. Antibodies for detection of activated MAPKs (pERK, pJNK and pP38) were purchased from Cell Signaling Technology (Beverly, Mass.). IRF-1 was detected using a rabbit polyclonal antibody from Santa-Cruz (Santa Cruz, Calif.). Antibody for detection of tyrosine-701 phosphorylated STAT1 was purchased from Zymed Laboratories (San Francisco, Calif.).
Apart from the use of a CP, we sought to analyze further the specificity of the inhibitory effects of BB-loop peptides on TLR signaling. Therefore, we also tested the effect of the peptides on signal transduction elicited from TLR2.
(In western blotting, separated proteins are transferred to a membrane and probed.)

In assay [2] the test system is TLR4 signaling (LPS-induced phosphorylation of ERK, JNK, p38). As to the kind of experiment: LPS-stimulated activation of MAPKs (pERK, pJNK, pP38), Western blot. The conditions noted are these: for effect on LPS-induced activation of ERK, cells preincubated with peptides only for 30 minutes: FIG. 5 and 7, 30 min preincubation; for effect on LPS-induced activation of ERK, cells preincubated with peptides only for 30 minutes / effect on LPS-induced activation (phosphorylation) of MAPKs (ERK, JNK) / inhibition of LPS-induced activation of ERK: LPS 10 ng/ml; for effect on LPS-induced activation (phosphorylation) of MAPKs (ERK, JNK): 40 μM, 1 h preincubation; for inhibition of LPS-induced activation of ERK / effect on LPS-induced activation of p38: 40 μM BP; for inhibition of phosphorylation of ERK whether or not 100-fold excess LPS was used: peptide increased from 10 μM to 40 μM, LPS 10 ng/nl or 1 μg/ml. As for the experimental part:
(§3) FIG. 2. Effect of blocking peptides on the LPS-stimulated activation of MAPKs and Tyr701 STAT-1. Ten μg of total protein was loaded per lane. A representative blot of three separate experiments is shown. Other details are given in the Materials and Methods section and legend for FIG. 1.
as §1
FIG. 5. Effect of mutated TRAM BB loop peptides on LPS-induced activation of ERK. Details of the experiment are as in legend for FIG. 4, except for the cells were preincubated with peptides only for 30 minutes.
as §2
Using antibodies specific for the phosphorylated (activated) forms of JNK, ERK, and p38, we next sought to examine the effect of BB-loop-containing inhibitory peptides on LPS-stimulated activation of MAPKs. LPS induces quick and transient activation of MAPKs in primary macrophages (FIG. 2A) that was not affected by the addition of CP. […] The TIRAP BP was the weakest BP; all MAPKs were activated in the presence of it, although to a lesser extent when compared to CP.

In assay [3] the test system is TLR4 signaling (LPS-induced IL-1β, MIP-1β, IFN-β, RANTES mRNA). As to the kind of experiment: LPS-induced gene expression in primary murine macrophages, real-time PCR. The note with it: for effect on induction of IL1-β and IFN-β mRNA (cytokine induction) by LPS: 30 min preincubation with peptide. How it is done:
FIG. 1. Effect of blocking peptides on the cytokine induction by LPS. Thioglycollate-elicited primary murine macrophages were preincubated in the presence of 40 μMof BP for one hour before stimulation with 10 ng/ml of LPS. (A) Quantitative real-time PCR analysis of gene expression. (B) Secretion of IL-1β and IL-6. Concentration of the cytokines was measured after overnight incubation of the cells in the presence of LPS and the peptides. (C) Sensitivity of the LPS-stimulated expression of IFN-β and IL-1β mRNA to varying concentrations of TRAM and MyD88 BP. Total mRNA was isolated 1 hour after LPS stimulation (A and C). *p<0.05; **p<0.01.
FIG. 6. Effect of mutant TRAM BB loop peptides on LPS-induced activation of IL1-β and IFN-β mRNA. Details of the experiments are as described in the legend for FIG. 1, except for the cells were preincubated with peptides only for 30 minutes.
C3H/OuJ mice were purchased from the Jackson Laboratory (Bar Harbor, Me.). Thioglycollate-elicited peritoneal macrophages were harvested and cultured in the presence of E. coli K235 LPS or Pam3Cys as described previously (Salkowski et al., 1999, J. Immunol. 164, 1529).
(§4) Total cellular RNA was extracted from macrophage cultures as described elsewhere and reversed transcribed using AMV Reverse Transcriptase (Promega, Madison, Wis.) and poly-T priming as recommended by the manufacturer. The resulting cDNA was quantified by real time PCR using SYBR Green PCR Master Mix (Applied Biosystems) and ABI Prism 7900HT cycler. Primers for detection of IL-1β, IFN-β, MIP-1β, […]RANTES, and HPRT mRNAs were designed using the Primer Express 2.0 program (Applied Biosystems). Relative gene expression was calculated using ΔCt method with HPRT as a housekeeping gene (1.8̂(CtHPRT−CtGene)) Statistical analysis was performed by one way ANOVA with repeated measures, followed by Dunnett's multiple comparison post hoc test with p≦0.05 chosen as the level of significance.
Mice with targeted mutations in MyD88 (Kawai et al., 2001, supra; Toshchakov et al., 2002, supra) or TIRAP (Yamamoto et al., 2002, Nature 420, 324) retain the capacity to signal through the MyD88-independent pathway. […] Therefore, the first question we sought to address experimentally is whether interactions of the BB-loops of the TIR domains of these adapters affect protein interactions leading to gene expression. To this end, we designed cell permeable peptides whose sequences correspond to the BB-loops of each adapter molecule and measured the ability of each BP to interfere with the induction of immediate response genes induced via MyD88-dependent and independent pathways. […] All BB-loop-containing peptides exerted an inhibitory effect on LPS-induced expression of MyD88-dependent IL-1β and […], as well as MyD88-independent IFN-β and RANTES mRNA, as measured by real-time PCR (FIG. 1A).
For orientation: In qPCR the cycle at which signal appears reflects the starting amount.

Assay [4] relates to TLR2 signaling (Pam3Cys-induced IL-1β mRNA). Kind of assay: Pam3Cys-induced cytokine mRNA expression, real-time PCR. How it is done: as §1, §4
Similar to their effect on activation of MAPKs, BPs were much weaker inhibitors with respect to Pam3Cys- vs. LPS-induced expression of IL-1β mRNA.

Assay [5] has as its system TLR4 signaling (IRF-3 dimerization). As to the kind of experiment: LPS-induced dimerization of IRF-3, native PAGE. The conditions noted are these: 100 ng/ml LPS, 1.5 hr. How it is done: (§5) FIG. 3. Effect of blocking peptides on activation of IRF-3 and IRF-1. […] Primary mouse macrophages were stimulated with 100 ng/ml of LPS. Seventeen μg of total protein was loaded per lane of the native gel. Other details are as described in the legend for FIG. 1.
Native PAGE for detection of IRF-3 activation was performed with minor modifications (Iwamura et al., 2001, Genes Cells 6, 375). One×10^7 thioglycollate-elicited cells were plated into a 6 cm dish and washed with PBS to remove non-adherent cells. Primary macrophages were stimulated with 100 ng/ml of LPS for 1.5 hr and lysed in buffer containing 50 mM TRIS-HCl pH 7.5, 150 mM NaCl, 1 mM EDTA, 1% NP-40, 1 mM sodium orthovanadate and 1× Complete protease inhibitor cocktail (Roche, Mannheim, Germany). Lysates were mixed with native lysis buffer (Bio-Rad, Hercules, Calif.) supplemented with 1% deoxycholate. Fifteen to 20 μg protein per lane was electrophoresed on a non-reducing gel and immunoblotted. IRF-3 dimers and monomers were detected using rabbit anti-IRF-3 antibody (Zymed Laboratories) by Western analysis.
Interferon Regulatory Factors (IRFs) were first identified as important transcriptional mediators of the antiviral immune response (reviewed in Taniguchi et al., 2001, Annu. Rev. Immunol. 19, 623). Later, it was recognized that this family of transcription factors plays an essential role in signal transduction mediated by different TLRs. IRF-1 is regulated transcriptionally by signaling from different TLRs, as well as by cytokines induced by TLR engagement (e.g., IL-1, TNF, and IFN-β) (Fujita et al., 1989, Proc. Natl. Acad. Sci. USA 86, 9936). In contrast, IRF-3 is constitutively expressed in many cell types (Au et al., 1995, Proc. Natl. Acad. Sci. USA 92, 11675). Upon stimulation through TLR4 or TLR3, IRF-3 is phosphorylated at multiple sites in its C-terminus, and this modification enables it to dimerize and translocate to the nucleus where it targets IRF-3-responsive genes (Kawai et al., 2001, supra; Lin et al., 1999, Mol. Cell. Biol. 19, 2465).

Assay [6] relates to TLR4 signaling (LPS-induced STAT-1 phosphorylation). As to the kind of experiment: LPS-induced phosphorylation of STAT-1, Western blot. The conditions noted are these: 40 μM BP. How it is done: as §3, §2
Assay [7] concerns TLR4 signaling (IRF-1 protein). As to the kind of experiment: LPS-induced upregulation of IRF-1 protein, SDS-PAGE/Western. The note with it: 100 ng/ml LPS, 1.5 h. As for the experimental part: as §5, §2
Importantly, MyD88 knockout macrophages are capable of inducing IRF-1 mRNA (Yamamoto et al., 2003, supra).

Setting [8] is: listed as Antennapedia DD loop peptide.

“Also recorded” adds a separate entry of the source. Ends that are not written are not given here.

As to KYKAMKKDFPSILR [MyD88 DD loop peptide], the “effect on P3C-induced activation (phosphorylation) of ERK” value (shortened to “effect … (phosphorylation) of ERK”) is reported as “not inhibitory” in assay [1] and “does not inhibit” in assay [1] (setting [8]). In addition, the “effect on LPS-induced activation of ERK, cells preincubated with peptides only for 30 minutes” value is given as “not inhibitory” in assay [2] and “does not inhibit” in assay [2] (setting [8]). Also, the “effect on induction of IL1-β and IFN-β mRNA (cytokine induction) by LPS” value (shortened to “effect on induction”) in assay [3] was “not inhibitory”. Moreover, the “effect on P3C-induced cytokine induction” value in assay [4] was “not inhibitory”.

Regarding “RQIKIWFQNRRMKWKKLHERNFVPGKSIVE (TLR1/6 blocking peptide) [TLR1/6-BP]”, the “inhibition of Pam3Cys-induced phosphorylation of MAPKs” value in assay [1] (40 μM BP, Pam3Cys 150 ng/ml, 30 min) is recorded as “affected neither”. The “effect on LPS-induced activation (phosphorylation) of MAPKs (ERK, JNK)” value (“effect on LPS-induced activation … (ERK, JNK)” below) in assay [2] was “affected neither”.

“RQIKIWFONRRMKWKKFCEEFQVPGRGELH (RQIKIWFQNRRMKWKKFCEEFQVPGRGELH; TRIF blocking peptide) [TRIF-BP]”: in assay [2], the “inhibition of LPS-induced activation of ERK” value is reported as “incomplete” and the “effect on LPS-induced activation … (ERK, JNK)” value was “strongly inhibited”. Also, the “inhibition of LPS-induced dimerization of IRF-3” value in assay [5] is given as “significantly inhibited”. In assay [6], the “inhibition of LPS-induced Tyr701 phosphorylation of STAT-1” value is recorded as “strongly inhibited”. Besides, in assay [7], the “effect on LPS-induced upregulation of IRF-1 protein” value is recorded as “intermediate efficacy”.

Take IVFAAMPCGRLHLQ [E/A mutant]: the “effect on LPS-induced activation of ERK, cells preincubated with peptides only for 30 minutes” value in assay [2] is reported as “did not affect considerably inhibitory capacity”. Also, the “effect on induction” value in assay [3] is “did not affect considerably inhibitory capacity”.

For the sequence “RQIKIWFQNRRMKWKKSLHGRGDPMEAFII (Control peptide - BLAST generated) [reference compound]”, the “effect on LPS-induced activation … (ERK, JNK)” value in assay [2] is reported as “not affected”. In addition, in assay [3] (40 μM BP, 1 h preincubation, 10 ng/ml LPS, mRNA 1 h after LPS), the “inhibitory effect on LPS-induced expression of IL-1β, MIP-1β, IFN-β and RANTES mRNA” value is given as “not significantly affected”. Moreover, the “effect on Pam3Cys-induced expression of IL-1β mRNA” value in assay [4] (40 μM, Pam3Cys) was “not significantly affected”. For the same sequence, in assay [7], the “effect on LPS-induced upregulation of IRF-1 protein” value is listed as “strong upregulation”.

Consider “RQIKIWFQNRRMKWKKLHKRDFVPGKWIID [TLR2-BP]”, for which the “effect on P3C-induced activation of p38” value in assay [1] is given as “did not inhibit”. The “effect … (phosphorylation) of ERK” value in assay [1] (listed as TLR2 BB peptide) is “diminished and delayed; also recorded: to some extent”. Moreover, in assay [2], the “effect on LPS-induced activation of p38” value is listed as “did not inhibit” and the “inhibition of phosphorylation of ERK whether or not 100-fold excess LPS was used” value was “effectively inhibited”. Also, in assay [2] (listed as TLR2 BB peptide), the “inhibition of LPS-induced activation of ERK” value is reported as “potent inhibitors; also recorded: inhibit”. In assay [3], the “effect on induction” value is on record as “inhibitory”. Further, the “effect on P3C-induced cytokine induction” value in assay [4] is “inhibitory”.

On to “RQIKIWFQNRRMKWKKLHYRDFIPGVAIAA [TLR4-BP]”, for which, in assay [1], the “effect on P3C-induced activation of p38” value is on record as “did not inhibit”. The “effect … (phosphorylation) of ERK” value in assay [1] (listed as TLR4 BB peptide) is listed as “to a lesser extend; also recorded: to some extent”. In assay [2], the “effect on LPS-induced activation of p38” value was “did not inhibit” and the “inhibition of phosphorylation of ERK whether or not 100-fold excess LPS was used” value is reported as “effectively inhibited”. Moreover, the “inhibition of LPS-induced activation of ERK” value in assay [2] (listed as TLR4 BB peptide) is reported as “potent inhibitors; also recorded: inhibit”. Also, the “effect on induction” value in assay [3] is reported as “inhibitory”. Also, in assay [4], the “effect on P3C-induced cytokine induction” value is “inhibitory”.

The values above are taken from patent US20100069297A1, “Selective Inhibition of TLR4 Signaling” (priority 2005, published 2010).
